# What was measured:
# HEK293-Vector cells = assay: Intracellular calcium flux assay, mock-transfected cells; assay type: cell-based, human; settings: 1 and 10 nM
# Experimental: Human embryonic kidney cell line (HEK293), and mouse cancer cell lines (MC38, 4T1) were purchased from the American Type Culture Collection (Manassas, VA, USA). All cell lines were grown in Dulbecco's Modified Essential Medium (DMEM) or Roswell Park Memorial Institute (RPMI) 1640 supplemented with 10% FBS, 100 U/mL penicillin, and 100 μg/mL streptomycin (WelGENE, Daegu, South Korea) in a humidified atmosphere of 5% CO2 at 37° C. To obtain GnRHR-overexpressing HEK293 (HEK293-GnRHR) cells, transfection of the pCMV-AC-GFP-GnRHR vector (HEK293-GnRHR) was performed using Lipofectamine™ 3000 according to the manufacturer's instructions (Cat. 100022052, Thermo Fisher Scientific, Waltham, MA, USA). Colonies of geneticin-resistant cells were selected by adding G418 (800 μg/mL, Sigma) to the culture medium. The HEK293-pCMV-AC-GFP vector (HEK293-Vector) cells were used as a mock-transfection group.
# Intracellular calcium mobilization was measured using the Calcium Flux Assay Kit (Cat. ab233472, abcam) in response to different concentrations of each peptide. The percentage increase was calculated relative to basal fluorescence intensity. The experiment was performed in triplicate.
# c-Myc = c-Myc protein expression and transcriptional activity in LNCaP (FIG. 12); assay type: cell-based, human; settings: 300 μM, 72 h
# Experimental: The cells and tumor tissues were homogenized using the PRO-PREP™ extraction solution (iNtRON Biotechnology, Seongnam, Korea). After incubation, the homogenate was centrifuged at 16,000×g for 20 min at 4° C., and the supernatant was collected for western blot analysis. Subsequently, an equivalent quantity of protein was separated using sodium dodecyl sulfate polyacrylamide gels and transferred onto a polyvinylidene difluoride (PVDF) membrane. The PVDF membranes were incubated with the primary antibodies overnight at 4° C., washed with tris-buffered saline, and then incubated with HRP-conjugated anti-mouse or anti-rabbit antibodies. The bands were visualized using a ChemiDoc imaging system (Bio-Rad, Hercules, CA, USA). The band intensities were determined using an Image J software.
# The c-Myc Transcription Factor Assay Kit (Cat. ab207200, abcam) was used to quantify the activation of c-Myc in nuclear extracts after peptide treatment. […] The protein concentration was quantified using the Bradford method (798 μL Bradford, 200 μL water, and 2 μL of the protein) at a wavelength of 595 nm (SmartSpecPlus; BioRad). For the detection of c-Myc transcriptional activity, 5 μg of the isolated nuclear extracts were used, and the absorbance was measured on a spectrophotometer (Synergy HT; BioTek) at OD 450 nm. […]
structure (smiles),measurement,setting,value
CCNC(=O)[C@@H]1CCCN1C(=O)[C@@H](NC(=O)[C@H](Cc1ccccc1)NC(=O)[C@H](CCCNC(=N)N)NC(=O)[C@H](CC(C)C)NC(=O)[C@H](CCCNC(=N)N)NC(=O)[C@H](Cc1ccc(O)cc1)NC(=O)[C@H](CO)NC(=O)[C@H](Cc1c[nH]c2ccccc12)NC(=O)[C@H](Cc1c[nH]cn1)NC(=O)[C@@H]1CCC(=O)N1)[C@@H](C)CC [HS1002],calcium flux,HEK293-Vector cells,increased calcium flux
same,c-Myc protein expression,c-Myc,significantly decreased
same,c-Myc transcriptional activity,c-Myc,significantly decreased

# Source: US20240247031A1, “COMPOSITION FOR TREATING CANCER CONTAINING TELOMERASE-TARGETING GNRH ANTAGONIST-DERIVED PEPTIDE HS1002” (Research & Business Foundation Sungkyunkwan University, priority 2023, published 2024)
